Laboratory results: PMC7683729, “Altered conformational sampling along an evolutionary trajectory changes the catalytic activity of an enzyme” (Nature Communications, 2020)

B1: cyclohexadienyl dehydratase from Pseudomonas aeruginosa (PaCDT) (enzyme, UniProt Q01269 26-268, looked up)
chain: QESRLDRILESGVLRVATTGDYKPFSYRTEEGGYAGFDVDMAQRLAESLGAKLVVVPTSWPNLMRDFADDRFDIAMSGISINLERQRQAYFSIPYLRDGKTPITLCSEEARFQTLEQIDQPGVTAIVNPGGTNEKFARANLKKARILVHPDNVTIFQQIVDGKADLMMTDAIEARLQSRLHPELCAVHPQQPFDFAEKAYLLPRDEAFKRYVDQWLHIAEQSGLLRQRMEHWLEYRWPTAHGK
notes: cyclohexadienyl dehydratase, Pseudomonas aeruginosa, UniProt Q01269 residues 26-268; PDB 5HPQ and 6BQE number - 11); source: E. coli K-12 ΔpheA (pDOTS7), IMAC-purified; not shown: His6, N-terminal, kept

Legend:
AncCDT-5 = system: T1, AncCDT-5; assay: end-point spectrophotometric phenylpyruvate formation ([…] nm); type: biochemical; conditions: equal volumes of protein in 20 mM Na2HPO4, 150 mM NaCl pH 7.4 and prephenate in 50 mM Na2HPO4 pH 8.0; room temperature (20–25 °C)
T1 construct: ancestral protein ending at Lys235; pDOTS7 vector, His6-tagged, expressed in E. coli delta-pheA; IMAC and SEC; predominantly monomeric

[1] = target: the molecule itself; assay: SEC-MALS; 100 μL of each protein loaded at 10 mg mL^-1 on Superdex 200 10/300 GL; 20 mM Na2HPO4, 150 mM NaCl, pH 7.4; 0.5 mL min^-1; single experiment (n = 1)

| Molecule | Km (AncCDT-5) [µM] | stoichiometry N [1] |
| --- | --- | --- |
| O=C(O)C(=O)CC1(C(=O)O)C=CC(O)C=C1 (centres unmarked) [prephenate] | 277 ± 4 | – |
| B1 | – | 3 |
